Results from patent US6875760B2 (Novo Nordisk A/S, priority 1999, dated 2005).

The compounds below were run against T1, human glucagon receptor (Homo sapiens, UniProt P47871) (assay: Glucagon Binding Assay (III)). Details: BHK cell membranes, WGA SPA beads, 125I-glucagon; read-out: Glu Bd Assay (III) IC50.
T1 construct: expressed in transfected cells; host or cells: BHK (baby hamster kidney) cells
Procedure, shortened: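 Membranes from BHK cells transfected with the human receptor, prepared at 4 °C, were used in a WGA-bead scintillation proximity binding format. Plates were shaken for 4 hours, left to settle 8–48 hours and then counted. Non-specific binding was defined with 500 nM glucagon.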

T1 sequence (P47871 26-477): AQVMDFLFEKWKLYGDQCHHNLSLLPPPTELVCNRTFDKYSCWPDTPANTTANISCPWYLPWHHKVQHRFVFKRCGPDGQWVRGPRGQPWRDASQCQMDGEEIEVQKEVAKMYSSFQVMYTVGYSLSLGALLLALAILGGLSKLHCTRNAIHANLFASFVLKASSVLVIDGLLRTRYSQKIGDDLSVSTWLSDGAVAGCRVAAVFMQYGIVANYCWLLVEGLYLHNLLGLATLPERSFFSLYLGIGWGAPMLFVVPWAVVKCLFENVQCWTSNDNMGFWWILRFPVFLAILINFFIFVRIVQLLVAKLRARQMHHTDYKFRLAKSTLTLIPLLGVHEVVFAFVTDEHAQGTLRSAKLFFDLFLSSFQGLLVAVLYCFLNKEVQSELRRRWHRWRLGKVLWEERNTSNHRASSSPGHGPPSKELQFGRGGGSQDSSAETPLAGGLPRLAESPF

Which IC50 does the source give for CCCCNC(=O)c1cccc(NC(=O)N(Cc2ccc(C(=O)Nc3nn[nH]n3)cc2)c2ccc(C3CCCCC3)cc2)c1 [Example 465, N-Butyl-3-{3-(4-cyclohexylphenyl)-3-[4-(2H-tetrazol-5-ylcarbamoyl)benzyl]ureido}benzamide] here?
Its IC50 is 0.606 µM.

Which IC50 does the source give for CS(=O)(=O)c1ccccc1NC(=O)N(Cc1ccc(C(=O)Nc2nn[nH]n2)cc1)c1ccc(C2CCCCC2)cc1 [Example 466, 4-[1-(4-Cyclohexylphenyl)-3-(2-methylsulfonylphenyl)ureidomethyl]-N-(2H-tetrazol-5-yl)benzamide] here?
The IC50 was 2.67 µM.

With CNS(=O)(=O)c1ccc(Cl)c(NC(=O)N(Cc2ccc(C(=O)Nc3nn[nH]n3)cc2)c2ccc(C3CCCCC3)cc2)c1 [Example 467, 4-[3-(2-Chloro-5-methylsulfamoylphenyl)-1-(4-cyclohexylphenyl)ureidomethyl]-N-(2H-tetrazol-5-yl)benzamide] as the compound, how does the IC50 read?
The IC50 was 0.772 µM.

CC(C)c1noc(-c2cccc(NC(=O)N(Cc3ccc(C(=O)Nc4nn[nH]n4)cc3)c3ccc(C4CCCCC4)cc3)c2)n1 [Example 468, 4-{1-(4-Cyclohexylphenyl)-3-[3-(3-isopropyl-[1,2,4]oxadiazol-5-yl)phenyl]ureidomethyl}-N-(2H-tetrazol-5-yl)benzamide] was tested. Which IC50 did it give?
The IC50 was 0.023 µM.

For CS(=O)(=O)c1cccc(NC(=O)N(Cc2ccc(C(=O)NCCC(=O)O)cc2)c2ccc(C3CCCCC3)cc2)c1 [Example 469, 3-{4-[1-(4-Cyclohexylphenyl)-3-(3-methylsulfonylphenyl)ureidomethyl]benzoylamino}propionic acid], which IC50 is on record?
The IC50 was 0.631 µM.

How did the IC50 turn out when O=C(Nc1nn[nH]n1)c1ccc(CN(C(=O)Nc2cccc(S(=O)(=O)CC3CC3)c2)c2ccc(C3CCCCC3)cc2)cc1 [Example 470] was run?
The IC50 was 0.116 µM.

For O=C(Nc1nn[nH]n1)c1ccc(CN(C(=O)Nc2cccc(S(=O)(=O)C3CCCC3)c2)c2ccc(C3CCCCC3)cc2)cc1 [Example 471], which IC50 is on record?
Its IC50 is 0.252 µM.

How did the IC50 turn out when C[S+]([O-])c1cccc(NC(=O)N(Cc2ccc(C(=O)Nc3nn[nH]n3)cc2)c2ccc(C3CCCCC3)cc2)c1 (centres unmarked) [Example 472, 4-[1-(4-Cyclohexylphenyl)-3-(3-methylsulfinylphenyl)ureidomethyl]-N-(2H-tetrazol-5-yl)benzamide] was run?
Its IC50 is 0.255 µM.

For CC(C)(C)C1CCC(N(Cc2ccc(C(=O)Nc3nn[nH]n3)cc2)C(=O)c2cc3ccccc3s2)CC1 (centres unmarked) [Example 473, Benzo[b]thiophene-2-carboxylic acid (4-tert-butylcyclohexyl)-[4-(2H-tetrazol-5-ylcarbamoyl)benzyl]amide], which IC50 is on record?
The IC50 was 1.5 µM.

CC(C)(C)C1CCC(N(Cc2ccc(C(=O)Nc3nn[nH]n3)cc2)C(=O)C2=CCc3ccccc32)CC1 (centres unmarked) [Example 474, 3H-Indene-1-carboxylic acid (4-tert-butylcyclohexyl)-[4-(2H-tetrazol-5-ylcarbamoyl)benzyl]amide] was tested. Which IC50 did it give?
The IC50 was 1.26 µM.

With CC(C)(C)C1CCC(N(Cc2ccc(C(=O)Nc3nn[nH]n3)cc2)C(=O)c2cc3ccccc3o2)CC1 (centres unmarked) [Example 475, Benzofuran-2-carboxylic acid (4-tert-butylcyclohexyl)-[4-(2H-tetrazol-5-ylcarbamoyl)benzyl]amide] as the compound, how does the IC50 read?
The IC50 was 0.886 µM.

Which IC50 does the source give for CC(C)(C)C1CCC(N(Cc2ccc(C(=O)Nc3nn[nH]n3)cc2)C(=O)/C=C/c2cccs2)CC1 (centres unmarked) [Example 476, 4-{[(4-tert-Butylcyclohexyl)-(3-thiophen-2-ylacryloyl)amino]methyl}-N-(2H-tetrazol-5-yl)benzamide] here?
The IC50 was 0.955 µM.

Which IC50 does the source give for O=C(Nc1nn[nH]n1)c1ccc(CN(CC(c2ccccc2)c2ccccc2)C(=O)/C=C/c2c(Cl)cccc2Cl)cc1 [Example 478, 4-{[[3-(2,6-Dichlorophenyl)acryloyl]-(2,2-diphenylethyl)amino]methyl}-N-(2H-tetrazol-5-yl)benzamide] here?
The IC50 was 2.94 µM.

CC(C)(C)c1ccc(N(Cc2ccc(C(=O)Nc3nn[nH]n3)cc2)C(=O)/C=C/c2c(Cl)cccc2Cl)cc1 [Example 479, 4-({(4-tert-butylphenyl)-[3-(2,6-dichlorophenyl)acryloyl]amino}methyl)-N-(2H-tetrazol-5-yl)benzamide] was tested. Which IC50 did it give?
Its IC50 is 0.819 µM.
